Data from PubChem BioAssay (NCI).
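Grown in 96-well plates, cells were treated for 48 hours with each compound at five concentrations. Insufficient inhibition: endpoint recorded as highest concentration tested. Definition used: TGI = concentration required for complete inhibition of growth.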

Legend:
Experiment in all cases: DTP human tumour cell line panel, 48 h
[1] = test system: 786-0 renal
[2] = test system: A498 renal
[3] = test system: A549 NSCLC
[4] = test system: ACHN renal
[5] = test system: BT-549 breast
[6] = test system: CAKI-1 renal
[7] = test system: CCRF-CEM leukemia
[8] = test system: COLO 205 colon
[9] = test system: DU-145 prostate
[10] = test system: EKVX NSCLC
[11] = test system: HCC-2998 colon
[12] = test system: HCT-116 colon
[13] = test system: HCT-15 colon
[14] = test system: HL-60(TB) leukemia
[15] = test system: HOP-62 NSCLC
[16] = test system: HOP-92 NSCLC
[17] = test system: HS 578T breast
[18] = test system: HT29 colon
[19] = test system: IGROV1 ovarian
[20] = test system: K-562 leukemia
[21] = test system: KM12 colon
[22] = test system: LOX IMVI melanoma
[23] = test system: M14 melanoma
[24] = test system: MALME-3M melanoma
[25] = test system: MCF7 breast
[26] = test system: MDA-MB-231 breast
[27] = test system: MDA-MB-435
[28] = test system: MDA-N
[29] = test system: MOLT-4 leukemia
[30] = test system: NCI-H226 lung
[31] = test system: NCI-H23 lung
[32] = test system: NCI-H460 lung
[33] = test system: NCI-H522 lung
[34] = test system: NCI/ADR-RES ovarian
[35] = test system: OVCAR-3 ovarian
[36] = test system: OVCAR-4 ovarian
[37] = test system: OVCAR-5 ovarian
[38] = test system: OVCAR-8 ovarian
[39] = test system: PC-3 prostate
[40] = test system: RPMI-8226 leukemia
[41] = test system: RXF 393 renal
[42] = test system: SF-268 CNS
[43] = test system: SF-295 CNS
[44] = test system: SF-539 CNS
[45] = test system: SK-MEL-2 melanoma
[46] = test system: SK-MEL-28 melanoma
[47] = test system: SK-MEL-5 melanoma
[48] = test system: SK-OV-3 ovarian
[49] = test system: SN12C renal
[50] = test system: SNB-19 CNS
[51] = test system: SNB-75 CNS
[52] = test system: SR leukemia
[53] = test system: SW-620 colon
[54] = test system: T-47D breast
[55] = test system: TK-10 renal
[56] = test system: U251 CNS
[57] = test system: UACC-257 melanoma
[58] = test system: UACC-62 melanoma
[59] = test system: UO-31 renal

CN(CCNC(=O)c1c[nH]c2c1ccc1ccccc12)CCNC(=O)c1c[nH]c2c1ccc1ccccc12
TGI [1]: 2.87 µM | TGI [2]: 8.47 µM | TGI [3]: 5.83 µM | TGI [4]: 4.72 µM | TGI [5]: 26.9 µM | TGI [6]: 10.1 µM | TGI [7]: 3.86 µM | TGI [8]: 3.24 µM | TGI [9]: 5.06 µM | TGI [10]: 11.1 µM | TGI [11]: 2.87 µM | TGI [12]: 3.39 µM | TGI [13]: 3.83 µM | TGI [14]: 4.29 µM | TGI [15]: 6.03 µM | TGI [16]: 7.2 µM | TGI [17]: 10.5 µM | TGI [18]: 3.5 µM | TGI [19]: 3.08 µM | TGI [20]: 3.31 µM | TGI [21]: 3.29 µM | TGI [22]: 3.09 µM | TGI [23]: 3.52 µM | TGI [24]: 23 µM | TGI [25]: 2.74 µM | TGI [26]: 3.2 µM | TGI [27]: 3.47 µM | TGI [28]: 5.63 µM | TGI [29]: 4.3 µM | TGI [30]: 40.5 µM | TGI [31]: 11.3 µM | TGI [32]: 4.13 µM | TGI [33]: 3.45 µM | TGI [34]: 13.1 µM | TGI [35]: 17.3 µM | TGI [36]: 11.7 µM | TGI [37]: 12.3 µM | TGI [38]: 3.91 µM | TGI [39]: 6.68 µM | TGI [40]: 15.6 µM | TGI [41]: 2.62 µM | TGI [42]: 11.6 µM | TGI [43]: 4.79 µM | TGI [44]: 3.39 µM | TGI [45]: 3.91 µM | TGI [46]: 4.16 µM | TGI [47]: 21.1 µM | TGI [48]: 18.4 µM | TGI [49]: 11.7 µM | TGI [50]: 6.23 µM | TGI [51]: 3.38 µM | TGI [52]: 4.69 µM | TGI [53]: 3.08 µM | TGI [54]: 2.7 µM | TGI [55]: 9.75 µM | TGI [56]: 4.03 µM | TGI [57]: 3.94 µM | TGI [58]: 3.46 µM | TGI [59]: 2.67 µM

CNCCCNC(=S)Cn1cc(C)c(=O)[nH]c1=O
TGI [1]: > 100 µM | TGI [2]: > 74.8 µM | TGI [3]: > 51.3 µM | TGI [4]: > 74.3 µM | TGI [5]: > 100 µM | TGI [6]: 39.4 µM | TGI [7]: > 50 µM | TGI [8]: > 69.9 µM | TGI [9]: > 80.6 µM | TGI [10]: > 100 µM | TGI [11]: > 69 µM | TGI [12]: > 68 µM | TGI [13]: > 100 µM | TGI [14]: > 54 µM | TGI [15]: > 100 µM | TGI [16]: > 100 µM | TGI [17]: > 75.5 µM | TGI [18]: > 100 µM | TGI [19]: > 96.1 µM | TGI [20]: > 100 µM | TGI [21]: > 78.8 µM | TGI [22]: > 100 µM | TGI [23]: > 69.6 µM | TGI [24]: > 100 µM | TGI [25]: > 92.5 µM | TGI [26]: > 100 µM | TGI [27]: > 31.6 µM | TGI [28]: > 100 µM | TGI [29]: > 71.7 µM | TGI [30]: > 100 µM | TGI [31]: > 81.8 µM | TGI [32]: > 67.3 µM | TGI [33]: > 100 µM | TGI [34]: > 100 µM | TGI [35]: > 100 µM | TGI [36]: > 100 µM | TGI [37]: > 100 µM | TGI [38]: > 100 µM | TGI [39]: > 100 µM | TGI [40]: > 100 µM | TGI [41]: > 95.5 µM | TGI [42]: > 100 µM | TGI [43]: > 54.3 µM | TGI [44]: > 60.9 µM | TGI [45]: > 74.4 µM | TGI [46]: > 75.4 µM | TGI [47]: > 31.4 µM | TGI [48]: > 85.7 µM | TGI [49]: > 100 µM | TGI [50]: > 100 µM | TGI [51]: > 100 µM | TGI [52]: > 100 µM | TGI [53]: > 100 µM | TGI [54]: > 100 µM | TGI [55]: > 100 µM | TGI [56]: > 100 µM | TGI [57]: > 59.4 µM | TGI [58]: > 63.5 µM | TGI [59]: > 86.7 µM

COc1cc2cc(C(=O)N3CC(CCl)c4ccc([N+](C)(C)Cc5ccc([N+](=O)[O-])cc5)cc43)[nH]c2c(OC)c1OC (stereo not drawn)
TGI [1]: 6.54 µM | TGI [2]: 3.5 µM | TGI [3]: > 100 µM | TGI [4]: 7.12 µM | TGI [5]: 35.6 µM | TGI [6]: 5.64 µM | TGI [7]: 7.01 µM | TGI [8]: 14.2 µM | TGI [9]: 10.8 µM | TGI [10]: 29.3 µM | TGI [11]: 2.95 µM | TGI [13]: 31 µM | TGI [14]: 5.55 µM | TGI [15]: > 100 µM | TGI [16]: 6.58 µM | TGI [17]: 47 µM | TGI [18]: 5.83 µM | TGI [20]: 5.61 µM | TGI [21]: 5.46 µM | TGI [23]: 40.5 µM | TGI [24]: 7.42 µM | TGI [25]: > 100 µM | TGI [26]: 46.6 µM | TGI [27]: 24 µM | TGI [28]: 16.5 µM | TGI [29]: 6.44 µM | TGI [30]: 15.4 µM | TGI [31]: 3.52 µM | TGI [32]: 4 µM | TGI [33]: 3.47 µM | TGI [34]: 4.17 µM | TGI [35]: 7.16 µM | TGI [36]: 13.6 µM | TGI [37]: > 100 µM | TGI [38]: 4.69 µM | TGI [39]: 16.3 µM | TGI [40]: 4.62 µM | TGI [41]: 3.09 µM | TGI [42]: 56.7 µM | TGI [43]: 15.3 µM | TGI [44]: 5.64 µM | TGI [45]: 5.26 µM | TGI [46]: 26.5 µM | TGI [47]: 3.31 µM | TGI [48]: 9.64 µM | TGI [49]: 31 µM | TGI [50]: 60 µM | TGI [51]: 11.1 µM | TGI [52]: 2.31 µM | TGI [53]: 6.18 µM | TGI [54]: 66.2 µM | TGI [56]: 7.36 µM | TGI [58]: 4.69 µM

OB(O)c1ccccc1C#Cc1ccccc1B(O)O
TGI [1]: > 100 µM | TGI [2]: 15.6 µM | TGI [3]: 96.1 µM | TGI [4]: > 100 µM | TGI [5]: 47.8 µM | TGI [6]: 22.1 µM | TGI [7]: > 100 µM | TGI [8]: 35.1 µM | TGI [9]: 82.4 µM | TGI [10]: 54.2 µM | TGI [11]: 40.9 µM | TGI [12]: 58.4 µM | TGI [13]: > 100 µM | TGI [14]: > 100 µM | TGI [15]: 83.9 µM | TGI [16]: > 100 µM | TGI [17]: 51 µM | TGI [18]: > 100 µM | TGI [19]: 13.9 µM | TGI [20]: > 100 µM | TGI [21]: 49 µM | TGI [22]: 51.1 µM | TGI [23]: 57.6 µM | TGI [24]: 44.2 µM | TGI [25]: 31.3 µM | TGI [26]: 66.3 µM | TGI [27]: 49 µM | TGI [28]: 58.4 µM | TGI [29]: > 100 µM | TGI [31]: 90.9 µM | TGI [32]: 48.2 µM | TGI [33]: 41.7 µM | TGI [34]: > 100 µM | TGI [35]: 68.6 µM | TGI [37]: 81.4 µM | TGI [38]: > 100 µM | TGI [39]: > 100 µM | TGI [40]: 68.8 µM | TGI [41]: 36.9 µM | TGI [42]: 46.9 µM | TGI [43]: 75.9 µM | TGI [44]: 44.9 µM | TGI [45]: 34.7 µM | TGI [46]: 99.3 µM | TGI [47]: 31.9 µM | TGI [48]: > 100 µM | TGI [49]: 68 µM | TGI [50]: 67.9 µM | TGI [51]: > 100 µM | TGI [52]: > 100 µM | TGI [53]: > 100 µM | TGI [54]: 83.6 µM | TGI [55]: 53.2 µM | TGI [56]: 78.3 µM | TGI [57]: 17.3 µM | TGI [58]: 30.8 µM | TGI [59]: 60.5 µM
